Data from the supplement of paper PMC10307832.

Experiments:
Assay in all cases: relative viability (nuclei count vs DMSO), 5 days (fraction); higher = more cells survive
[1] = compound: CN(C)C[C@@H]1CCn2cc(c3ccccc32)C2=C(C(=O)NC2=O)c2cn(c3ccccc23)CCO1 [Ruboxistaurin] + C[C@@H](Oc1cc(-c2cnn(C3CCNCC3)c2)cnc1N)c1c(Cl)ccc(F)c1Cl [Crizotinib] (partner 1 µM)
Outline: (§1)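 Lung cancer cell lines were seeded in 1536-well plates and dosed by pin tool the next day, with either a single drug or a fixed anchor-drug dose combined with five library-drug doses (not always all listed) spaced in √10 steps. Five days later, one step fixed the cells and stained their nuclei (final 0.05% Triton X-100, 1% formaldehyde, 1 ug/ml Hoechst), and nuclei were counted on 4× images. Relative viability is the nuclei count in treated wells divided by the count in vehicle wells, and each value is the median of duplicate plates.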

[2] = compound: CN(C)C[C@@H]1CCn2cc(c3ccccc32)C2=C(C(=O)NC2=O)c2cn(c3ccccc23)CCO1 [Ruboxistaurin] + CC(C)C[C@H](NC(=O)[C@H](Cc1ccccc1)NC(=O)c1cnccn1)B(O)O [Bortezomib] (partner 0.002 µM)
Outline: as §1

[3] = compound: CN(C)C[C@@H]1CCn2cc(c3ccccc32)C2=C(C(=O)NC2=O)c2cn(c3ccccc23)CCO1 [Ruboxistaurin] + C[C@]1(O)C[C@@H](c2nc(-c3ccc4ccc(-c5ccccc5)nc4c3)c3c(N)nccn32)C1 [Linsitinib] (partner 1 µM)
Outline: as §1

[4] = compound: CN(C)C[C@@H]1CCn2cc(c3ccccc32)C2=C(C(=O)NC2=O)c2cn(c3ccccc23)CCO1 [Ruboxistaurin] + Cc1nc(NC(=O)N2CCC[C@H]2C(N)=O)sc1-c1ccnc(C(C)(C)C(F)(F)F)c1 [Alpelisib] (partner 2 µM)
Outline: as §1

[5] = compound: CN(C)C[C@@H]1CCn2cc(c3ccccc32)C2=C(C(=O)NC2=O)c2cn(c3ccccc23)CCO1 [Ruboxistaurin] + CS(=O)(=O)N1CCN(Cc2cc3nc(-c4cccc5[nH]ncc45)nc(N4CCOCC4)c3s2)CC1 [Pictilisib] (partner 1 µM)
Outline: as §1

| Cell Line | relative viability ([1]; first compound 0.08 µM) | relative viability ([1]; first compound 0.8 µM) | relative viability ([1]; first compound 2.53 µM) | relative viability ([1]; first compound 8 µM) | relative viability ([2]; first compound 0.08 µM) | relative viability ([2]; first compound 0.8 µM) | relative viability ([2]; first compound 2.53 µM) | relative viability ([2]; first compound 8 µM) | relative viability ([3]; first compound 0.08 µM) | relative viability ([3]; first compound 0.8 µM) | relative viability ([3]; first compound 2.53 µM) | relative viability ([3]; first compound 8 µM) | relative viability ([4]; first compound 0.08 µM) | relative viability ([4]; first compound 0.8 µM) | relative viability ([4]; first compound 2.53 µM) | relative viability ([4]; first compound 8 µM) | relative viability ([5]; first compound 0.08 µM) | relative viability ([5]; first compound 0.8 µM) | relative viability ([5]; first compound 2.53 µM) | relative viability ([5]; first compound 8 µM) |
| --- | --- | --- | --- | --- | --- | --- | --- | --- | --- | --- | --- | --- | --- | --- | --- | --- | --- | --- | --- | --- |
| NCI-H2405 | 0.901 | 0.823 | 0.838 | 0.874 | 1.01 | 1.01 | 1 | 0.94 | 1.01 | 0.866 | 1.01 | 0.902 | 0.936 | 0.681 | 0.775 | 0.835 | 0.561 | 0.411 | 0.478 | 0.33 |
| NCI-H3122 | 0.28 | 0.211 | 0.298 | 0.225 | 1.07 | 0.953 | 1.01 | 1.1 | 1.03 | 0.978 | 1.03 | 1.01 | 0.837 | 0.562 | 0.737 | 0.587 | 0.7 | 0.398 | 0.564 | 0.436 |
| PC-3 [JPC-3] | 1.03 | 0.958 | 1 | 1.02 | 0.855 | 0.804 | 0.793 | 0.85 | 0.974 | 0.91 | 0.915 | 1 | 1.02 | 0.956 | 1.01 | 0.976 | 0.883 | 0.678 | 0.742 | 0.814 |
| PC-14 | 0.932 | 0.821 | 0.958 | 0.929 | 1.11 | 0.743 | 0.899 | 1.1 | 1.02 | 0.914 | 0.936 | 0.914 | 1.03 | 0.887 | 0.881 | 1 | 0.788 | 0.63 | 0.689 | 0.402 |
| RERF-LC-KJ | 0.811 | 0.766 | 0.812 | 0.926 | 1.09 | 0.992 | 1.1 | 0.937 | 0.877 | 0.857 | 0.932 | 0.956 | 0.854 | 0.798 | 0.761 | 0.744 | 0.508 | 0.499 | 0.472 | 0.359 |
| SK-LU-1 | 1.03 | 0.734 | 0.869 | 0.583 | 1.37 | 1.03 | 1.22 | 1.07 | 1.14 | 0.975 | 0.991 | 0.854 | 1.07 | 0.81 | 0.921 | 0.782 | 0.55 | 0.55 | 0.561 | 0.426 |
| SW 1573 | 0.855 | 0.74 | 0.942 | 0.688 | 0.892 | 0.973 | 0.983 | 1.05 | 0.879 | 0.839 | 0.799 | 0.772 | 0.752 | 0.688 | 0.72 | 0.706 | 0.468 | 0.39 | 0.542 | 0.37 |
| UMC-11 | 0.537 | 0.554 | 0.64 | 0.465 | 0.725 | 0.667 | 0.691 | 0.564 | 0.976 | 0.884 | 0.987 | 0.642 | 0.966 | 0.896 | 0.95 | 0.743 | 0.892 | 0.596 | 0.728 | 0.509 |
